Like-named read-outs stand apart in the source and are kept apart here.

One assay deals with T1, delta opioid receptor (Rattus norvegicus, UniProt P33533).
T1 construct: from tissue; host or cells: forebrain of male Wistar rats (particulate membrane preparation)
The assay can be described thus: Rat Brain Delta Opioid Receptor Binding Assay. The procedure: Procedure: Male, Wistar rats (150-250 g, VAF, Charles River, Kingston, N.Y.) were killed by CO2, and their brains were removed and placed immediately in ice cold Tris HCl buffer (50 mM, pH 7.4). The forebrains were separated from the remainder of the brain by a coronal transection, beginning dorsally at the colliculi and passing ventrally through the midbrain-pontine junction. After dissection, the forebrains were homogenized in Tris buffer in a Teflon®-glass homogenizer. The homogenate was diluted to a concentration of 1 g of forebrain tissue per 80 mL Tris and centrifuged at 39,000×g for 10 min. The pellet was resuspended in the same volume of Tris buffer containing 5 mM MgCl2 with several brief pulses from a Polytron homogenizer. This particulate preparation was used for the delta opioid binding assays. Following incubation with the delta selective peptide ligand ˜4 nM [^3H]DPDPE or 0.15 nM [^3H]naltrindole at 25° C. for 2.5 h in a 96-well plate with total volume of […], the plate contents were filtered through Wallac filtermat B sheets on a Tomtec 96-well harvester. The filters were rinsed three times with 2 mL of 10 mM HEPES (pH 7.4), and dried in a 650 W microwave oven for 1.75 min twice. To each sample area 2×50 μL of Betaplate Scint scintillation fluid (LKB) was added and the radioactivity was quantified on a LKB (Wallac) 1205 BetaPlate liquid scintillation counter.
(§1) Analysis: The data from the scintillation counter was used to calculate either the % inhibition compared to control binding (when only a single concentration of test compound was evaluated) or a Ki value (when a range of concentrations was tested). Percent inhibition was calculated as: [(total dpm-test compound dpm)/(total dpm-nonspecific dpm)]*100. Kd and Ki values were calculated using GraphPad PRISM data analysis program.

For another assay, the target named is T2, mu opioid receptor (Rattus norvegicus, UniProt P33535).
T2 construct: from tissue; host or cells: forebrain of male Wistar rats (particulate membrane preparation)
T2 sequence (P33535 whole entry): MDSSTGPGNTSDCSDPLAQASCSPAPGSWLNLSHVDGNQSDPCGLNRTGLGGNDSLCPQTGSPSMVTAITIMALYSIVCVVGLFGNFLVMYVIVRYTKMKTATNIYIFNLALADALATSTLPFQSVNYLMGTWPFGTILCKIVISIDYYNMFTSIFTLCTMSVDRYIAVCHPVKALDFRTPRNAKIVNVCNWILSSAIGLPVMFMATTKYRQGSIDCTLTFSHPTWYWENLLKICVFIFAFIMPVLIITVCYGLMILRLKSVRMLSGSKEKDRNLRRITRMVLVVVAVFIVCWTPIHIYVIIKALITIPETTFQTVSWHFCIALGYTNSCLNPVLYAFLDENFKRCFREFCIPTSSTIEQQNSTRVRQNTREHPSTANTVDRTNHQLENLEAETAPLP
The assay is described as follows: Rat Brain Mu Opioid Receptor Binding Assay. How it is done: Procedure: Male, Wistar rats (150-250 g, VAF, Charles River, Kingston, N.Y.) were killed by CO2, and their brains were removed and placed immediately in ice cold Tris HCl buffer (50 mM, pH 7.4). The forebrains were separated from the remainder of the brain by a coronal transection, beginning dorsally at the colliculi and passing ventrally through the midbrain-pontine junction. After dissection, the forebrains were homogenized in Tris buffer in a Teflon®-glass homogenizer. The homogenate was diluted to a concentration of 1 g of forebrain tissue per 80 mL Tris and centrifuged at 39,000×g for 10 min. The pellet was resuspended in the same volume of Tris buffer containing 5 mM MgCl2 with several brief pulses from a Polytron homogenizer. This particulate preparation was used for the mu opioid binding assays.
as §1

Assay [1] has as its target T3, delta opioid receptor (NG108-15 cell membranes) (Mus musculus, UniProt P32300).
T3 construct: NG108-15 cell membranes were purchased from Applied Cell Sciences (Rockville, Md.); host or cells: NG108-15 cell membranes (purchased)
The assay can be described thus: [35S]GTPγS Binding Assay in NG108-15 Cell Membranes (Delta Opioid). In kind it is biochemical. The procedure:
Methods: NG108-15 cell membranes were purchased from Applied Cell Sciences (Rockville, Md.). 8 mg/mL of membrane protein was suspended in 10 mM TRIS-HCl pH 7.2, 2 mM EDTA, 10% sucrose. Membranes were maintained at 4-8° C. A 1 mL volume of membranes was added into 10 mL cold binding assay buffer. The assay buffer contained 50 mM Tris, pH 7.6, 5 mM MgCl2, 100 mM NaCl, 1 mM DTT and 1 mM EGTA. The membrane suspension was homogenized twice with a Polytron, and centrifuged at 3000 rpm for 10 min. The supernatant was then centrifuged at 18,000 rpm for 20 min. Ten mL assay buffer was added into the pellet containing tube. The pellet and buffer were mixed with a Polytron.
Incubation procedure: The pellet membranes (75 μg/mL) were preincubated with SPA (10 mg/mL) at 25° C. for 45 min in the assay buffer. […] GTPγS in the same Tris buffer containing 100 μM GDP in a total volume of 200 μL. Increasing concentrations of receptor agonists were used to stimulate [^35S]-GTP[…]S binding. The basal binding was tested in the absence of agonists and non-specific binding was tested in the presence of 10 μM unlabeled GTPγS. The data were analyzed on a Packard Top Count.
% of Basal=(stimulated−non specific)*100/(basal−non specific).
EC50 value values were calculated using GraphPad Prism.

Setting [2] is: rat forebrain membranes, [3H]DAMGO, 25° C., 2.5 h, read-out: mu (Ki).
[3] abbreviates: NG108-15 cell membranes, stimulation of [35S]GTPγS binding, read-out: delta GTPγS EC50.
The mark [4] stands for this setting: rat forebrain membranes, [3H]DPDPE or [3H]naltrindole, 25° C., 2.5 h, read-out: delta (Ki).

T1 sequence (P33533 whole entry): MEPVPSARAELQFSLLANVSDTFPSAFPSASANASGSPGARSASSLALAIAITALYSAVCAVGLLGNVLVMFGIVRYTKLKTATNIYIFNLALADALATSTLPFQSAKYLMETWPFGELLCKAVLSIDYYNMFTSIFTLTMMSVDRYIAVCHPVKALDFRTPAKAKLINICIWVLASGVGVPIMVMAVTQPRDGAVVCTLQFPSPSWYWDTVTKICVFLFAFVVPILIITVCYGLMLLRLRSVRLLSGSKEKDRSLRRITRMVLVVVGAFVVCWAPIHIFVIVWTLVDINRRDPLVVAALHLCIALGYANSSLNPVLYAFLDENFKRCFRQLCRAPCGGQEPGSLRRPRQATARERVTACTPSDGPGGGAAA
T3 sequence (P32300 whole entry): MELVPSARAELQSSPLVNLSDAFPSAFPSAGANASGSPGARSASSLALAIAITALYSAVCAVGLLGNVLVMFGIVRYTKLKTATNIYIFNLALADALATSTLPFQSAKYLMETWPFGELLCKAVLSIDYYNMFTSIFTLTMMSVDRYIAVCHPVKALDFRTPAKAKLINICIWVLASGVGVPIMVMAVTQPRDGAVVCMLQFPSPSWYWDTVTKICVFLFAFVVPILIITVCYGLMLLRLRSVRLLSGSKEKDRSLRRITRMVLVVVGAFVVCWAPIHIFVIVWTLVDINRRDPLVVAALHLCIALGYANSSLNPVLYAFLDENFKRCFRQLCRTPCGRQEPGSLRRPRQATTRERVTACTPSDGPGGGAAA

For the compound `CCN(CC)C(=O)c1ccc2c(c1)Oc1c(O)cccc1C2C1CCNCC1` (centres unmarked) [7c, 5-Hydroxy-9-piperidin-4-yl-9H-xanthene-3-carboxylic acid diethylamide], the figures for the Ki at delta opioid receptor and at mu opioid receptor were 2 nM and 4230 nM, respectively. Besides, in assay [1], the EC50 amounted to 18.7 nM. For the same compound, in assay [1] (NG108-15 cell membranes, relative efficacy), the “delta GTPγS Rel Eff.” value is recorded as 0.51.
As to `CCN(CC)C(=O)c1cccc(-c2ccc3c(c2)Oc2c(O)cccc2C3C2CCNCC2)c1` (centres unmarked) [3j, N,N-Diethyl-3-(5-hydroxy-9-piperidin-4-yl-9H-xanthen-3-yl)-benzamide], the Ki on delta opioid receptor turned out to be 37.8 nM; at mu opioid receptor (setting [2]), 535 nM. Besides, the EC50 in assay [1] (setting [3]) is 342 nM.
For the compound `c1ccc(CN2CCC(C3c4ccccc4Oc4cc(-c5ccncc5)ccc43)CC2)nc1` (centres unmarked) [4h, 4-[9-(1-Pyridin-2-ylmethyl-piperidin-4-yl)-9H-xanthen-3-yl]-pyridine], the Ki at delta opioid receptor came out at 2640 nM; on mu opioid receptor it was 2050 nM.
Regarding `CC(=O)Nc1ccccc1-c1ccc2c(c1)Oc1c(O)cccc1C2C1CCNCC1` (centres unmarked) [4e, N-[2-(5-Hydroxy-9-piperidin-4-yl-9H-xanthen-3-yl)-phenyl]-acetamide], the Ki at delta opioid receptor is 38.1 nM; at mu opioid receptor (setting [2]), 289 nM.
Take `c1ccc(CCN2CCC(C3c4ccccc4Oc4cc(-c5cccnc5)ccc43)CC2)cc1` (centres unmarked) [8f, 3-[9-(1-Phenethyl-piperidin-4-yl)-9H-xanthen-3-yl]-pyridine]: the Ki turned out to be 2990 nM at delta opioid receptor (setting [4]) and 907 nM on mu opioid receptor (setting [2]).
For `CC(=O)Nc1ccccc1-c1ccc2c(c1)Oc1ccccc1C2C1CCN(CCc2ccccc2)CC1` (centres unmarked) [5g, N-{2-[9-(1-Phenethyl-piperidin-4-yl)-9H-xanthen-3-yl]-phenyl}-acetamide] the same measures were 4570 nM and 995 nM.
Regarding `CC(=O)Nc1ccccc1-c1ccc2c(c1)Oc1ccccc1C2C1CCN(Cc2ccoc2)CC1` (centres unmarked) [3g, N-{2-[9-(1-Furan-3-ylmethyl-piperidin-4-yl)-9H-xanthen-3-yl]-phenyl}-acetamide], the Ki on delta opioid receptor stood at 100 nM; at mu opioid receptor (setting [2]) it was 4440 nM.
With `c1ccc2c(c1)Oc1cc(-c3ccncc3)ccc1C2C1CCN(Cc2ccoc2)CC1` (centres unmarked) [3h, 4-[9-(1-Furan-3-ylmethyl-piperidin-4-yl)-9H-xanthen-3-yl]-pyridine], the Ki at delta opioid receptor turned out to be 791 nM; at mu opioid receptor, 4260 nM.
For `CCN(CC)C(=O)c1ccc2c(c1)Oc1ccccc1C2C1CCN(Cc2ccccc2)CC1` (centres unmarked) [10a, 9-(1-Benzyl-piperidin-4-yl)-9H-xanthene-3-carboxylic acid diethylamide] the same measures were 75 nM and 5370 nM.
With `CCNC(=O)c1ccc2c(c1)Oc1c(O)cccc1C2C1CCNCC1` (centres unmarked) [5d, 5-Hydroxy-9-piperidin-4-yl-9H-xanthene-3-carboxylic acid ethylamide], the Ki was 209 nM at delta opioid receptor (setting [4]) and 876 nM on mu opioid receptor (setting [2]).
For `c1ccc2c(c1)Oc1cc(-c3nnn[nH]3)ccc1C2C1CCNCC1` (centres unmarked) [3l, 4-[3-(1H-Tetrazol-5-yl)-9H-xanthen-9-yl]-piperidine] the same measures were 768 nM and greater than 10000 nM.
In the case of `CCN(CC)C(=O)c1ccc2c(c1)Oc1ccccc1C2C1CCN(Cc2ncc[nH]2)CC1` (centres unmarked) [13a, 9-[1-(1H-Imidazol-2-ylmethyl)-piperidin-4-yl]-9H-xanthene-3-carboxylic acid diethylamide], the Ki at delta opioid receptor is 106 nM; at mu opioid receptor, 1700 nM.
Take `C=CCN1CCC(C2c3ccccc3Oc3cc(-c4ccccc4NC(C)=O)ccc32)CC1` (centres unmarked) [6g, N-{2-[9-(1-Allyl-piperidin-4-yl)-9H-xanthen-3-yl]-phenyl}-acetamide]: the Ki is 1090 nM at delta opioid receptor (setting [4]) and 9630 nM on mu opioid receptor (setting [2]).
For `c1cncc(-c2ccc3c(c2)Oc2ccccc2C3C2CCNCC2)c1` (centres unmarked) [4f, 3-(9-Piperidin-4-yl-9H-xanthen-3-yl)-pyridine] the same measures were 161 nM and 1000 nM.
Turning to `CCN(CC)C(=O)c1ccc2c(c1)Oc1ccccc1C2C1CCNCC1` (centres unmarked) [8a, 9-Piperidin-4-yl-9H-xanthene-3-carboxylic acid diethylamide], the figures for the Ki at delta opioid receptor and at mu opioid receptor (setting [2]) were 15 nM and 8790 nM, respectively. For the same compound, the EC50 in assay [1] (setting [3]) worked out at 266 nM.
As to `COc1cccc2c1Oc1cc(-c3cccnc3)ccc1C2C1CCNCC1` (centres unmarked) [7b, 3-(5-Methoxy-9-piperidin-4-yl-9H-xanthen-3-yl)-pyridine], the Ki on delta opioid receptor (setting [4]) was 318 nM; on mu opioid receptor (setting [2]), greater than 10000 nM.
On the same counts, the results for `O=C(c1ccc2c(c1)Oc1ccccc1C2C1CCN(Cc2ccoc2)CC1)N1CC[C@H](O)C1` (stereo partly drawn) [5n, [9-(1-Furan-3-ylmethyl-piperidin-4-yl)-9H-xanthen-3-yl]-(3-(S)-hydroxy-pyrrolidin-1-yl)-methanone] are 177 nM and greater than 10000 nM.
For the compound `COc1cccc2c1Oc1cc(-c3ccccc3NC(C)=O)ccc1C2C1CCNCC1` (centres unmarked) [9b, N-[2-(5-Methoxy-9-piperidin-4-yl-9H-xanthen-3-yl)-phenyl]-acetamide], the Ki at delta opioid receptor (setting [4]) was determined as 761 nM; on mu opioid receptor (setting [2]), 4450 nM.
For `CCN(CC)C(=O)c1ccc2c(c1)Oc1ccccc1C2C1CCN(CC2CC2)CC1` (centres unmarked) [14a, 9-(1-Cyclopropylmethyl-piperidin-4-yl)-9H-xanthene-3-carboxylic acid diethylamide] the same measures were 1080 nM and 6990 nM.
For `O=C(c1ccc2c(c1)Oc1ccccc1C2C1CCNCC1)N1CC[C@H](O)C1` (stereo partly drawn) [4n, (3-(S)-Hydroxy-pyrrolidin-1-yl)-(9-piperidin-4-yl-9H-xanthen-3-yl)-methanone] the same measures were 434 nM and greater than 10000 nM.
Take `Oc1cccc2c1Oc1cc(-c3cccnc3)ccc1C2C1CCNCC1` (centres unmarked) [3i, 9-Piperidin-4-yl-6-pyridin-3-yl-9H-xanthen-4-ol]: the Ki was 242 nM at delta opioid receptor and greater than 10000 nM at mu opioid receptor.
In the case of `CC(=O)Nc1ccccc1-c1ccc2c(c1)Oc1ccccc1C2C1CCNCC1` (centres unmarked) [2g, N-[2-(9-Piperidin-4-yl-9H-xanthen-3-yl)-phenyl]-acetamide], the Ki was 1020 nM on delta opioid receptor (setting [4]) and greater than 10000 nM on mu opioid receptor (setting [2]).
`COc1cccc2c1Oc1cc(-c3ccncc3)ccc1C2C1CCNCC1` (centres unmarked) [8b, 4-(5-Methoxy-9-piperidin-4-yl-9H-xanthen-3-yl)-pyridine]: the Ki is 619 nM on delta opioid receptor (setting [4]) and greater than 10000 nM at mu opioid receptor (setting [2]).

Source of the values: patent publication US20060135522A1, “Tricyclic delta-opioid modulators” (priority 2004, published 2006).
